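1) Cells in 96-well plates. 2) Compound, 48 h, 5 concentrations. 3) Linear interpolation between surrounding doses. 4) Unreached endpoint = highest concentration. Here, GI50 denotes the concentration required for 50% inhibition of growth. TGI: concentration producing complete growth inhibition.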
Assays:
Assay in all cases: NCI-60 cell line screen, 48 h
EKVX NSCLC = system: EKVX NSCLC
PC-3 prostate = system: PC-3 prostate
CCRF-CEM leukemia = system: CCRF-CEM leukemia
RXF 393 renal = system: RXF 393 renal
NCI-H226 lung = system: NCI-H226 lung
SK-MEL-2 melanoma = system: SK-MEL-2 melanoma
HOP-92 NSCLC = system: HOP-92 NSCLC
NCI/ADR-RES ovarian = system: NCI/ADR-RES ovarian
DMS 114 small cell lung = system: DMS 114 small cell lung
DMS 273 small cell lung = system: DMS 273 small cell lung

COc1cc(OC)c2c(=O)cc(-c3ccccc3OCc3ccccc3)oc2c1OC was tested, and the GI50 (EKVX NSCLC) was 5.54 µM, the TGI (EKVX NSCLC) was 91.2 µM and the GI50 (PC-3 prostate) was 3.34 µM. It also gave a TGI (PC-3 prostate) of 32.5 µM, a GI50 (CCRF-CEM leukemia) of 3.18 µM and a TGI (CCRF-CEM leukemia) of 67.7 µM. For the same compound, the GI50 (RXF 393 renal) was greater than 100 µM, the TGI (RXF 393 renal) was greater than 100 µM and the GI50 (NCI-H226 lung) was 6.25 µM. For the same compound, the TGI (NCI-H226 lung) was 44 µM, the GI50 (SK-MEL-2 melanoma) was greater than 100 µM and the TGI (SK-MEL-2 melanoma) was greater than 100 µM. For the same compound, the GI50 (HOP-92 NSCLC) was 2.63 µM, the TGI (HOP-92 NSCLC) was 18.6 µM and the GI50 (NCI/ADR-RES ovarian) was 2.96 µM. The TGI (NCI/ADR-RES ovarian) was 18.6 µM.

O=C1CS/C(=N/S(=O)(=O)c2ccc(N3N=C4c5ccccc5CC4C3c3cccs3)cc2)N1C(=O)c1ccccc1 (stereo not drawn) gave a GI50 (EKVX NSCLC) of 42.4 µM, a TGI (EKVX NSCLC) greater than 100 µM and a GI50 (PC-3 prostate) of 38.1 µM. For the same compound, the TGI (PC-3 prostate) was greater than 100 µM, the GI50 (CCRF-CEM leukemia) was 37.5 µM and the TGI (CCRF-CEM leukemia) was greater than 100 µM. The GI50 (RXF 393 renal) was 90.7 µM, the TGI (RXF 393 renal) was greater than 100 µM and the GI50 (NCI-H226 lung) was 58.5 µM. It also gave a TGI (NCI-H226 lung) greater than 100 µM, a GI50 (SK-MEL-2 melanoma) greater than 100 µM and a TGI (SK-MEL-2 melanoma) greater than 100 µM. It also gave a GI50 (HOP-92 NSCLC) of 37.3 µM, a TGI (HOP-92 NSCLC) greater than 100 µM and a GI50 (NCI/ADR-RES ovarian) greater than 100 µM. For the same compound, the TGI (NCI/ADR-RES ovarian) was greater than 100 µM.

In the case of COc1cc(Cc2c(C)cc(OC)c3[nH]c4ccccc4c23)cc2c1[nH]c1ccccc12, the GI50 (CCRF-CEM leukemia) is reported as 8.59 µM, the TGI (CCRF-CEM leukemia) is reported as greater than 25 µM and the TGI (DMS 114 small cell lung) is reported as greater than 25 µM. It also gave a GI50 (NCI-H226 lung) of 4.67 µM, a TGI (NCI-H226 lung) of 12.8 µM and a GI50 (SK-MEL-2 melanoma) of 3.97 µM. The TGI (SK-MEL-2 melanoma) was 11.6 µM, the GI50 (DMS 273 small cell lung) was 7.64 µM and the TGI (DMS 273 small cell lung) was 21.6 µM. It also gave a GI50 (HOP-92 NSCLC) of 7.63 µM and a TGI (HOP-92 NSCLC) greater than 25 µM.

CS(=O)(=O)c1ccc(COP(N)(=O)N(CCCl)CCCl)cc1 (stereo not drawn) showed a TGI (CCRF-CEM leukemia) greater than 100 µM, a TGI (RXF 393 renal) greater than 100 µM and a TGI (DMS 114 small cell lung) greater than 100 µM. For the same compound, the TGI (NCI-H226 lung) was greater than 100 µM, the TGI (SK-MEL-2 melanoma) was greater than 100 µM and the TGI (DMS 273 small cell lung) was greater than 100 µM. The TGI (HOP-92 NSCLC) was greater than 100 µM.

NC1=NC(SCc2ccccc2CCl)c2ncn(Cc3ccccc3CCl)c2N1 (stereo not drawn) showed a GI50 (EKVX NSCLC) of 3.14 µM, a TGI (EKVX NSCLC) of 11.6 µM and a GI50 (PC-3 prostate) of 1.79 µM. The TGI (PC-3 prostate) was 3.52 µM, the GI50 (CCRF-CEM leukemia) was 1.79 µM and the TGI (CCRF-CEM leukemia) was 5.68 µM. The GI50 (RXF 393 renal) was 1.48 µM, the TGI (RXF 393 renal) was 2.85 µM and the GI50 (NCI-H226 lung) was 1.9 µM. The TGI (NCI-H226 lung) was 4.7 µM, the GI50 (SK-MEL-2 melanoma) was 2.06 µM and the TGI (SK-MEL-2 melanoma) was 4.89 µM. It also gave a GI50 (HOP-92 NSCLC) of 1.1 µM, a TGI (HOP-92 NSCLC) of 2.39 µM and a GI50 (NCI/ADR-RES ovarian) of 1.81 µM. It also gave a TGI (NCI/ADR-RES ovarian) of 4.3 µM.

With CCCCNS(=O)(=O)c1ccc(-c2ccc3c(c2)-c2ccc(S(=O)(=O)NCCCC)cc2S3(=O)=O)cc1 the TGI (EKVX NSCLC) was greater than 100 µM, the TGI (CCRF-CEM leukemia) was greater than 100 µM and the TGI (RXF 393 renal) was 30.6 µM. It also gave a TGI (DMS 114 small cell lung) greater than 100 µM, a TGI (NCI-H226 lung) of 32 µM and a TGI (SK-MEL-2 melanoma) of 87.9 µM. For the same compound, the TGI (DMS 273 small cell lung) was greater than 100 µM and the TGI (HOP-92 NSCLC) was 41.5 µM.

O=C1NC(=O)C(=Cc2cn(Cc3ccccc3)c3ccccc23)C(=O)N1 showed a GI50 (EKVX NSCLC) of 21.3 µM, a TGI (EKVX NSCLC) greater than 63.5 µM and a GI50 (PC-3 prostate) of 11.4 µM. The TGI (PC-3 prostate) was 30.8 µM, the GI50 (CCRF-CEM leukemia) was 20.5 µM and the TGI (CCRF-CEM leukemia) was greater than 67.2 µM. For the same compound, the GI50 (RXF 393 renal) was 11.6 µM, the TGI (RXF 393 renal) was 48.3 µM and the GI50 (NCI-H226 lung) was 0.951 µM. It also gave a TGI (NCI-H226 lung) of 3.29 µM, a GI50 (SK-MEL-2 melanoma) of 6.41 µM and a TGI (SK-MEL-2 melanoma) of 28.3 µM. It also gave a GI50 (HOP-92 NSCLC) of 1.5 µM, a TGI (HOP-92 NSCLC) of 19.9 µM and a GI50 (NCI/ADR-RES ovarian) of 18.4 µM. For the same compound, the TGI (NCI/ADR-RES ovarian) was 50.3 µM.

CCCCCCC(=O)C/C(CCC(=O)N(Cc1ccccc1)Cc1ccccc1)=N\NC(N)=O showed a TGI (EKVX NSCLC) greater than 100 µM, a TGI (CCRF-CEM leukemia) greater than 100 µM and a TGI (RXF 393 renal) greater than 100 µM. The TGI (DMS 114 small cell lung) was greater than 100 µM, the TGI (NCI-H226 lung) was greater than 100 µM and the TGI (SK-MEL-2 melanoma) was greater than 100 µM. For the same compound, the TGI (DMS 273 small cell lung) was greater than 100 µM and the TGI (HOP-92 NSCLC) was greater than 100 µM.

Reference: PubChem BioAssay (NCI)
